Experimental data: patent US9987276B2 (Celgene CAR LLC, priority 2008, dated 2018)
Read-outs that look alike come from different tables or passages of the source.

Legend:
EGFR-WT = EGFR-WT (Homo sapiens (Human), UniProt P00533); assay: Omnia assay for potency assessment against EGFR (WT)
BTK = BTK (Homo sapiens (Human), UniProt Q06187); assay: Omnia assay for potency assessment against BTK; format: biochemical; conditions: [BTK]=5 nM, Omnia assay; read-out: BTK Inhibition (IC50)
Protocol: The modified BTK-optimized reagent conditions for the above protocol are:
[BTK]=5 nM, [ATP]=[…], [Y5-Sox]=[…] (ATP KMapp˜[…]).

[1] = read-out: EGFR (wild type inhibition), EGFR wild type

Chain of BTK (Q06187 whole entry): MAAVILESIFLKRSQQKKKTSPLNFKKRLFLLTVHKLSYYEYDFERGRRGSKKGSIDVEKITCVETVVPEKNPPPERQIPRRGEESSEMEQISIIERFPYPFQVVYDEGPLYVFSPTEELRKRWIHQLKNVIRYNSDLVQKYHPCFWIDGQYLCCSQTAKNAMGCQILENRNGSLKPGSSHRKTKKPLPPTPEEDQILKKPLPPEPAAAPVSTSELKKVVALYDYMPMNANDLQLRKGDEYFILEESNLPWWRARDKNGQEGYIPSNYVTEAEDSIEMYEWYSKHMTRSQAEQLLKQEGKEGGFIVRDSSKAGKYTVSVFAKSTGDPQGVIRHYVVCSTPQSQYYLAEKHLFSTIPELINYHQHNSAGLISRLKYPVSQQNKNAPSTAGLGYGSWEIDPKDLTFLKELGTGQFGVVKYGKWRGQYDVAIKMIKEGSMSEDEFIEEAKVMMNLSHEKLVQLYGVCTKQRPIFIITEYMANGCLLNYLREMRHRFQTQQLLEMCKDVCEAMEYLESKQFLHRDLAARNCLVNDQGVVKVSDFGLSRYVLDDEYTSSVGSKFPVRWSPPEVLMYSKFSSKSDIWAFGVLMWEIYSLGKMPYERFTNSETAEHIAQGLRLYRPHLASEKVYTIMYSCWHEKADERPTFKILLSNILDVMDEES

Compound	IC50 (EGFR-WT; [1])	IC50 (BTK)	IC50 (EGFR-WT)
C=CC(=O)Nc1cccc(Nc2nc(Nc3cccc(OCC4CCN(C)CC4)c3)ncc2F)c1 [Compound I-82, N-(3-(5-fluoro-2-(3-((1-methylpiperidin-4-yl)methoxy)phenylamino)pyrimidin-4-ylamino)phenyl)-acrylamide]	< 10 nM	< 10 nM	
C=CC(=O)Nc1cccc(Nc2nc(Nc3ccc(OCCOC)cc3)ncc2C#N)c1 [Compound I-109, N-(3-(5-cyano-2-(4-(2-methoxyethoxy)phenylamino)pyrimidin-4-ylamino)phenyl)acrylamide]	< 10 nM	< 10 nM	
Cc1cccc(Nc2nc(Nc3cccc(NC(=O)/C=C/CN4C[C@@H](C)N[C@@H](C)C4)c3)ncc2F)c1 [Compound I-119, (E)-4-((3R,5S)-3,5-dimethylpiperazin-1-yl)-N-(3-(5-fluoro-4-(m-tolylamino)pyrimidin-2-ylamino)phenyl)but-2-enamide]		10 to 100 nM	100 to 1000 nM
C=CC(=O)Nc1cccc(Nc2nc(Nc3ccc4c(c3)N(C(C)=O)CCO4)ncc2F)c1 [Compound I-112, N-(3-(2-(4-acetyl-2,3-dihydrobenzo[1,4]oxazin-6-yl)amino-5-fluoropyrimidin-4-ylamino)phenyl)acrylamide]		< 10 nM	10 to 100 nM
C=CC(=O)Nc1cccc(Nc2nc(Nc3ccc(OC(C)(C)CO)cc3)ncc2F)c1 [Compound I-93, N-(3-(5-fluoro-2-(4-(1-hydroxy-2-methylpropan-2-yloxy)phenylamino)pyrimidin-4-ylamino)phenyl)acrylamide]		< 10 nM	10 to 100 nM
C=CC(=O)N(C)Cc1cccc(Nc2nc(Nc3cccc(OC)c3)ncc2F)c1 [Compound I-115, N-(3-(5-fluoro-2-(3-methyoxyphenylamino)pyrimidin-4-ylamino)benzyl)-N-methylacrylamide]		10 to 100 nM	
C=CC(=O)N(C)Cc1ccc(Oc2nc(Nc3ccc(OC)nc3)ncc2F)cc1 [Compound I-117, N-(4-(5-fluoro-2-(6-methoxypyridin-3-ylamino)pyrimidin-4-yloxy)benzyl)-N-methylacrylamide]	1000 to 10000 nM	< 10 nM	
C=CC(=O)Nc1cccc(Oc2nc(Nc3cccc(N4CCN(CCO)CC4)c3)ncc2F)c1 [Compound I-84, N-(3-(5-fluoro-2-(3-(4-(2-hydroxyethyl)piperazin-1-yl)phenylamino)pyrimidin-4-yloxy)phenyl)acrylamide]	< 10 nM	< 10 nM	
C=CC(=O)Nc1cccc(Nc2ncc(C)c(Nc3cccc(Br)c3)n2)c1 [Compound I-9, N-(3-(4-(3-bromophenylamino)-5-methylpyrimidin-2-ylamino)phenyl) acrylamide]		< 10 nM	
Cc1cccc(Nc2nc(Nc3cccc(NC(=O)/C=C/CN4CCC4)c3)ncc2F)c1 [Compound I-123, (E)-4-(azetidin-1-yl)-N-(3-(5-fluoro-4-(m-tolylamino)pyrimidin-2-ylamino)phenyl)but-2-enamide]			10 to 100 nM
C=CC(=O)N1CCOc2ccc(Nc3nc(Nc4ccc(OCCO)nc4)ncc3C(C)=O)cc21 [Compound I-128, 1-(6-{5-Acetyl-2-[6-(2-hydroxy-ethoxy)-pyridin-3-ylamino]-pyrimidin-4-ylamino}-2,3-dihydro-benzo[1,4]oxazin-4-yl)-propenone]			10 to 100 nM
C=CC(=O)Nc1cccc(Nc2nc(Nc3ccc(Cl)c(OCCCS(C)(=O)=O)c3)ncc2F)c1 [Compound I-55, N-(3-(2-(4-chloro-3-(3-(methylsulfonyl)propoxy)phenylamino)-5-fluoropyrimidin-4-ylamino)phenyl)acrylamide]		< 10 nM	

The next lines start with the values.

IC50 (EGFR-WT; [1])	IC50 (BTK)	IC50 (EGFR-WT)	Compound
> 10000 nM	1000 to 10000 nM		C=CC(=O)Nc1cccc(Nc2nc(NC3CCCN(C(C)=O)C3)ncc2F)c1 (stereo not drawn) [Compound I-238, N-(3-(2-(1-acetylpiperidin-3-ylamino)-5-fluoropyrimidin-4-ylamino)phenyl)acrylamide]
	10 to 100 nM	100 to 1000 nM	CC(C)=CC(=O)c1cccc(Nc2nc(Nc3cccc(S(N)(=O)=O)c3)ncc2C)c1 [Compound I-224, 1-(3-(5-methyl-2-(3-aminosulfonylphenylamino)pyrimidin-4-ylamino)phenyl)-3-methylbut-2-en-1-one]
	10 to 100 nM		C=CC(=O)N1CCC(Nc2nc(Nc3ccccc3)ncc2F)CC1 [Compound I-229, 1-(4-(5-fluoro-2-(phenylamino)pyrimidin-4-ylamino)piperidin-1-yl)prop-2-en-1-one]
	> 10000 nM	100 to 1000 nM	COc1cccc(Nc2ncc(C(F)(F)F)c(N[C@@H]3CCC[C@H](C(=O)C=C(C)C)C3)n2)c1 (stereo in doubt) [Compound I-213, 1-(3-(2-(3-Methoxy-phenylamino)-5-trifluoromethyl-pyrimidin-4-ylamino)-cyclohexyl)-3-methyl-but-2-en-1-one]
< 10 nM	< 10 nM		(E)-4-(dimethylamino)-N-(3-(5-methyl-4-(m-tolylamino)pyrimidin-2-ylamino)phenyl)but-2-enamide [Compound I-360]
1000 to 10000 nM	1000 to 10000 nM		C#CCOc1cccc(Nc2ncc(F)c(Nc3cccc(C(=O)C=C(C)C)c3)n2)c1 [Compound I-211, 1-(3-(5-fluoro-2-(3-(prop-2-ynyloxy)phenylamino)pyrimidin-4-ylamino)phenyl)-3-methylbut-2-en-1-one]
1000 to 10000 nM	1000 to 10000 nM		C=CC(=O)Nc1cccc(Nc2ncc(F)c(Oc3ccc(Oc4ccccc4)cc3)n2)c1 [Compound I-212]
	100 to 1000 nM	> 10000 nM	C=CC(=O)N1CCC[C@H](Oc2nc(Nc3cccc(OC)c3)ncc2F)C1 [Compound I-179, (S)-1-(3-(5-fluoro-2-(3-methoxyphenylamino)pyrimidin-4-yloxy)piperidin-1-yl)prop-2-en-1-one]
	10 to 100 nM	100 to 1000 nM	C=CC(=O)N1CCOc2ccc(Nc3ncc(F)c(Nc4ccc(OCc5ccccn5)c(Cl)c4)n3)cc21 [Compound I-343, 1-(6-(4-(3-chloro-4-(pyridine-2-ylmethoxy)phenylamino)-5-fluoropyrimidin-2-ylamino)-2H-benzo[b][1,4]oxazin-4(3H)-yl)prop-2-en-1-one]
	< 10 nM	10 to 100 nM	C=CC(=O)N1CCOc2ccc(Nc3nc(Nc4ccc(OCCOC)cc4)ncc3F)cc21 [Compound I-141, 1-(6-(5-fluoro-2-(4-(2-methoxyethoxy)phenylamino)pyrimidin-4-ylamino)-2H-benzo[b][1,4]oxazin-4(3H)-yl)prop-2-en-1-one]
	< 10 nM	10 to 100 nM	C=CC(=O)N1CCC[C@@H](Nc2nc(Nc3ccc(O[C@@H]4CCOC4)cc3)ncc2F)C1 [Compound I-348, 1-((R)-3-(5-fluoro-2-(4-((R)-tetrahydrofuran-3-yloxy)phenylamino)pyrimidin-4-ylamino)piperidin-1-yl)prop-2-en-1-one]
1000 to 10000 nM			COCCOc1ccc(Nc2ncc(F)c(Nc3ccc(CC(=O)C=C(C)C)cc3)n2)cc1F [Compound I-331, 1-(4-(5-fluoro-2-(3-fluoro-4-(2-methoxyethoxy)phenylamino)pyrimidin-4-ylamino)phenyl)-4-methylpent-3-en-2-one]
	< 10 nM		C=C(C#N)C(O)c1cccc(Nc2nc(Nc3ccc(OCC(C)(C)O)nc3)ncc2F)c1 (stereo not drawn) [Compound I-312, 2-((3-(5-fluoro-2-(6-(2-hydroxy-2-methylpropoxy)pyridin-3-ylamino)pyrimidin-4-ylamino)phenyl)(hydroxy)methyl)acrylonitrile]
